In publication PMC6627331, “Identification of Small Molecule Inhibitors of Staphylococcus aureus RnpA” (Antibiotics, 2019):

Assays:
S. aureus UAMS-1 = assay: Galleria mellonella model of S. aureus infection; type: in vivo; conditions: 10^4 CFU UAMS-1, single dose 100 mg·kg^−1 1 h post-infection, 16 h; DMSO 60%
Experimental: (§1) An overnight culture of S. aureus strain UAMS-1 was used to inoculate (1:100 dilution) 25 mL of fresh MH medium and growth at 37 °C on a rotary shaker at 225 rpm to exponential phase (~1 × 10^8 CFU mL^−1). Cultures were pelleted by centrifugation, washed with phosphate buffered saline (PBS), and re-suspended at ~1 × 10^7 CFU·mL^−1 in fresh PBS. G. mellonella larvae weighing 150–250 mg were inoculated with 5 µL of S. aureus into the last left proleg using a 10 µL Hamilton syringe. About 1 h after inoculation, one group of worms was treated with 2 µL DMSO as infected negative control; one group was treated with 2 µL JC2 compound at 100 mg/kg dose; another group was treated with 2 µL vancomycin at 100 mg/kg dose as standard-of-care comparison. Treatments were administered in the same manner as infection, except that each injection was in the next left proleg moving towards the head of the worm. […] In addition to the mock or compound treatment of infected larvae, a group of non-infected worm injected with DMSO or corresponding compounds were used to monitor the impact of physical trauma as well as observe toxicity associated with compound treatment.

Galleria mellonella = Galleria mellonella single tolerated dose (uninfected worms); type: in vivo; conditions: single dose 100 mg·kg^−1, 16 h
Experimental: as §1

CC1CCCCN1C(=O)Nc1cc(Cl)cc(Cl)c1 (centres unmarked) [JC2]
mortality rate of S. aureus infected worms (S. aureus UAMS-1): 30%
mortality rate of uninfected worms (Galleria mellonella): did not display any treatment-associated lethality
